Laboratory results from PMC7501296, “Rapid and direct control of target protein levels with VHL-recruiting dTAG molecules” (Nature Communications, 2020).
“And” between values parts separate entries of the source, which are not always exact repeats. Equal values may be shown once.

Columns and labels:
Format in all cases: cell-based
[1] = test system: PATU-8902 FKBP12^F36V-KRAS^G12V; KRAS^-/- clone; assay: Antiproliferation, PATU-8902 FKBP12F36V-KRASG12V; KRAS-/- clone, 2D-monolayer (CellTiter-Glo)
[2] = test system: PATU-8902 LACZ-FKBP12^F36V clone; assay: Antiproliferation, PATU-8902 LACZ-FKBP12F36V clone, 3D-spheroid (CellTiter-Glo)
Outline: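 Viability of cells grown as ultra-low adherent 3D-spheroids was determined with the CellTiter-Glo reagent (Promega). Luminescence was read on either an Envision 2104 plate reader (PerkinElmer) or a Fluostar Omega Reader (BMG Labtech). The resulting data were analyzed with GraphPad PRISM v8.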

FKBP12^WT-Nluc = target: T1, FKBP12^WT-Nluc (Homo sapiens, UniProt P62942); assay: FKBP12WT-Nluc dual luciferase assay (293FT); conditions: 293FT FKBP12WT-Nluc, 24 h
T1 construct: expressed in transfected cells; host or cells: 293FT
T1 sequence (P62942 2-108 limits assumed): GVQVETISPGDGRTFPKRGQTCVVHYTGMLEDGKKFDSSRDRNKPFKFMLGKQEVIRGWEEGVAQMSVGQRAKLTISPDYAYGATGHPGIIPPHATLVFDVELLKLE
Outline: (§1)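 293FT cells expressing FKBP12^WT-Nluc or FKBP12^F36V-Nluc with Fluc were treated with compound for 24 h at 37 °C. Fluc, then Nluc, luminescence was read with Dual-Glo reagents. Values are DMSO-normalised Nluc/Fluc ratios.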

[3] = test system: PATU-8902 FKBP12^F36V-KRAS^G12V; KRAS^-/- clone; assay: Antiproliferation, PATU-8902 FKBP12F36V-KRASG12V; KRAS-/- clone, 3D-spheroid (CellTiter-Glo); conditions: FKBP12F36V-KRASG12V, KRAS-/-, 3D-spheroid, replicate values
Outline: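 Viability of cells grown as ultra-low adherent 3D-spheroids was determined with CellTiter-Glo (Promega). Luminescence readings were taken on an Envision 2104 plate reader (PerkinElmer) and a Fluostar Omega Reader (BMG Labtech), and the resulting data were processed in GraphPad PRISM v8 to assess effects on cell proliferation.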

FKBP12^F36V-Nluc = target: T2, FKBP12^F36V-Nluc (Homo sapiens, UniProt P62942, F37V); assay: FKBP12F36V-Nluc dual luciferase assay (293FT); conditions: 293FT FKBP12F36V-Nluc, 24 h
T2 construct: expressed in transfected cells; host or cells: 293FT
T2 sequence (P62942 2-108 F37V limits assumed): as the sequence (P62942 2-108 limits assumed) above, with F36V counted along it
Outline: as §1

[4] = test system: PATU-8902 LACZ-FKBP12^F36V clone; assay: Antiproliferation, PATU-8902 LACZ-FKBP12F36V clone, 2D-monolayer (CellTiter-Glo)
Outline: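 Viability of cells grown as 2D-adherent monolayers was determined with the CellTiter-Glo luminescent reagent (Promega). Luminescence signals were read on either an Envision 2104 plate reader (PerkinElmer) or a Fluostar Omega Reader (BMG Labtech), and the resulting data were processed and analyzed in GraphPad PRISM v8 software.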

[5] = log10[compound] (M) -5.69897, replicate values
[6] = log10[compound] (M) -6.19897, replicate values
[7] = log10[compound] (M) -6.69897, replicate values
[8] = log10[compound] (M) -7.19897, replicate values
[9] = log10[compound] (M) -7.69897, replicate values
[10] = log10[compound] (M) -8.19897, replicate values
[11] = log10[compound] (M) -8.69897, replicate values
[12] = log10[compound] (M) -9.19897, replicate values
[13] = log10[compound] (M) -9.69897, replicate values
[14] = log10[compound] (M) -10.199, replicate values
[15] = log10[compound] (M) -5.30103, single replicates
[16] = log10[compound] (M) -5.80103, single replicates
[17] = log10[compound] (M) -6.30103, single replicates
[18] = log10[compound] (M) -6.80103, single replicates
[19] = log10[compound] (M) -7.30103, single replicates
[20] = log10[compound] (M) -7.80103, single replicates
[21] = log10[compound] (M) -8.30103, single replicates
[22] = log10[compound] (M) -8.80103, single replicates
[23] = log10[compound] (M) -9.30103, single replicates
[24] = log10[compound] (M) -9.80103, single replicates

With `CC[C@H](C(=O)N1CCCC[C@H]1C(=O)O[C@H](CCc1ccc(OC)c(OC)c1)c1ccccc1OCC(=O)NCCCCCCOc1cccc2c1C(=O)N(C1CCC(=O)NC1=O)C2=O)c1cc(OC)c(OC)c(OC)c1` (stereo partly drawn) [dTAG-13] the DMSO-normalized antiproliferation [1, 5] was 10.9257 and 6.898 and 8.446 and 8.371, the DMSO-normalized antiproliferation [1, 6] was 11.932 and 10.4461 and 13.2552 and 12.7525 and the DMSO-normalized antiproliferation [1, 7] was 9.655 and 9.596 and 10.3089 and 13.0861. The DMSO-normalized antiproliferation [1, 8] was 15.4438 and 14.4907 and 17.4502 and 15.1305, the DMSO-normalized antiproliferation [1, 9] was 47.914 and 33.2029 and 20.7399 and 31.0479 and the DMSO-normalized antiproliferation [1, 10] was 58.9433 and 77.5971 and 44.7261 and 57.0103. The DMSO-normalized antiproliferation [1, 11] was 103.967 and 74.9703 and 94.8172 and 78.6857, the DMSO-normalized antiproliferation [1, 12] was 94.4313 and 115.825 and 99.9239 and 85.5403 and the DMSO-normalized antiproliferation [1, 13] was 101.606 and 85.9324 and 94.5986 and 110.248. The DMSO-normalized antiproliferation [1, 14] was 88.9654 and 100.345 and 66.0988 and 85.3394, the DMSO-normalized antiproliferation [2, 5] was 83.5347 and 77.755 and 106.784 and 100.802 and the DMSO-normalized antiproliferation [2, 6] was 108.447 and 95.2018 and 93.9194 and 111.801. For the same molecule, the DMSO-normalized antiproliferation [2, 7] was 105.932 and 113.702 and 105.116 and 107.515, the DMSO-normalized antiproliferation [2, 8] was 104.318 and 154.981 and 104.434 and 95.3632 and the DMSO-normalized antiproliferation [2, 9] was 98.1432 and 118.54 and 142.668 and 106.77. For the same molecule, the DMSO-normalized antiproliferation [2, 10] was 105.712 and 98.6185 and 105.909 and 92.2738, the DMSO-normalized antiproliferation [2, 11] was 108.958 and 119.361 and 97.2958 and 103.25 and the DMSO-normalized antiproliferation [2, 12] was 89.1127 and 99.6498 and 108.86 and 111.989. The DMSO-normalized antiproliferation [2, 13] was 97.9056 and 108.178 and 110.59 and 112.891, the DMSO-normalized antiproliferation [2, 14] was 91.8389 and 92.6594 and 105.927 and 94.166 and the “DMSO-normalized ratio of Nluc/Fluc signal” value (FKBP12^WT-Nluc; [15]) was 68.0018 and 52.1082 and 49.2679 and 67.0893. The “DMSO-normalized ratio of Nluc/Fluc signal” value (FKBP12^WT-Nluc; [16]) was 39.4179 and 40.0508 and 57.6875 and 62.3631, the “DMSO-normalized ratio of Nluc/Fluc signal” value (FKBP12^WT-Nluc; [17]) was 61.6189 and 51.8679 and 71.8125 and 45.1167 and the “DMSO-normalized ratio of Nluc/Fluc signal” value (FKBP12^WT-Nluc; [18]) was 68.675 and 79.0108 and 77.6288 and 57.0488. For the same molecule, the “DMSO-normalized ratio of Nluc/Fluc signal” value (FKBP12^WT-Nluc; [19]) was 95.7266 and 46.8613 and 87.0104 and 66.427, the “DMSO-normalized ratio of Nluc/Fluc signal” value (FKBP12^WT-Nluc; [20]) was 86.0033 and 61.1842 and 69.3744 and 83.8873 and the “DMSO-normalized ratio of Nluc/Fluc signal” value (FKBP12^WT-Nluc; [21]) was 94.8586 and 72.3429 and 122.034 and 94.0336. For the same molecule, the “DMSO-normalized ratio of Nluc/Fluc signal” value (FKBP12^WT-Nluc; [22]) was 101.052 and 65.5195 and 71.6364 and 55.6566, the “DMSO-normalized ratio of Nluc/Fluc signal” value (FKBP12^WT-Nluc; [23]) was 113.35 and 121.354 and 97.4549 and 93.7336 and the “DMSO-normalized ratio of Nluc/Fluc signal” value (FKBP12^WT-Nluc; [24]) was 115.063 and 75.6978 and 95.0976 and 66.8915. For the same molecule, the DMSO-normalized antiproliferation ([3]; log10[compound] (M) -5.69897) was 12.7187 and 7.467 and 16.3605 and 9.962, the DMSO-normalized antiproliferation ([3]; log10[compound] (M) -6.19897) was 11.9335 and 12.0003 and 12.0114 and 13.9827 and the DMSO-normalized antiproliferation ([3]; log10[compound] (M) -6.69897) was 14.0106 and 15.4027 and 13.0027 and 15.9484. For the same molecule, the DMSO-normalized antiproliferation ([3]; log10[compound] (M) -7.19897) was 14.0384 and 16.4385 and 16.9619 and 11.7776, the DMSO-normalized antiproliferation ([3]; log10[compound] (M) -7.69897) was 14.9517 and 15.5419 and 18.3931 and 15.5976 and the DMSO-normalized antiproliferation ([3]; log10[compound] (M) -8.19897) was 24.6577 and 23.0874 and 23.2266 and 22.4971. For the same molecule, the DMSO-normalized antiproliferation ([3]; log10[compound] (M) -8.69897) was 42.8837 and 45.8128 and 51.5651 and 55.5467, the DMSO-normalized antiproliferation ([3]; log10[compound] (M) -9.19897) was 69.8747 and 70.4761 and 56.6493 and 74.3184 and the DMSO-normalized antiproliferation ([3]; log10[compound] (M) -9.69897) was 76.2117 and 76.4178 and 69.3902 and 68.6162. The DMSO-normalized antiproliferation ([3]; log10[compound] (M) -10.199) was 73.2492 and 74.079 and 68.7888 and 65.637, the “DMSO-normalized ratio of Nluc/Fluc signal” value (FKBP12^F36V-Nluc; [15]) was 16.9532 and 13.2908 and 14.9671 and 13.7454 and the “DMSO-normalized ratio of Nluc/Fluc signal” value (FKBP12^F36V-Nluc; [16]) was 7.24 and 7.457 and 10.3426 and 8.644. For the same molecule, the “DMSO-normalized ratio of Nluc/Fluc signal” value (FKBP12^F36V-Nluc; [17]) was 8.366 and 8.818 and 6.862 and 6.126, the “DMSO-normalized ratio of Nluc/Fluc signal” value (FKBP12^F36V-Nluc; [18]) was 7.33 and 5.168 and 6.329 and 6.447 and the “DMSO-normalized ratio of Nluc/Fluc signal” value (FKBP12^F36V-Nluc; [19]) was 10.0232 and 16.06 and 10.9144 and 8.614. For the same molecule, the “DMSO-normalized ratio of Nluc/Fluc signal” value (FKBP12^F36V-Nluc; [20]) was 17.0708 and 14.82 and 12.6407 and 10.0196, the “DMSO-normalized ratio of Nluc/Fluc signal” value (FKBP12^F36V-Nluc; [21]) was 27.5948 and 22.2337 and 28.8782 and 22.7323 and the “DMSO-normalized ratio of Nluc/Fluc signal” value (FKBP12^F36V-Nluc; [22]) was 41.1668 and 39.5241 and 40.8834 and 34.8862. For the same molecule, the “DMSO-normalized ratio of Nluc/Fluc signal” value (FKBP12^F36V-Nluc; [23]) was 85.0231 and 74.0396 and 80.0349 and 60.0307, the “DMSO-normalized ratio of Nluc/Fluc signal” value (FKBP12^F36V-Nluc; [24]) was 71.5411 and 59.8417 and 77.3242 and 60.4301 and the DMSO-normalized antiproliferation [4, 5] was 79.0923 and 75.109 and 80.3774 and 113.638. The DMSO-normalized antiproliferation [4, 6] was 118.691 and 93.7383 and 99.9076 and 98.4249, the DMSO-normalized antiproliferation [4, 7] was 98.3156 and 96.4487 and 164.194 and 141.704 and the DMSO-normalized antiproliferation [4, 8] was 94.7264 and 123.324 and 123.729 and 139.928. The DMSO-normalized antiproliferation [4, 9] was 115.53 and 113.276 and 121.811 and 92.6376, the DMSO-normalized antiproliferation [4, 10] was 99.0586 and 98.4337 and 106.76 and 114.872 and the DMSO-normalized antiproliferation [4, 11] was 84.0085 and 109.147 and 95.5423 and 106.301. The DMSO-normalized antiproliferation [4, 12] was 117.815 and 105.751 and 92.5029 and 116.86, the DMSO-normalized antiproliferation [4, 13] was 127.696 and 110.786 and 93.8321 and 122.663 and the DMSO-normalized antiproliferation [4, 14] was 105.1 and 122.023 and 107.287 and 98.2283.
